{"source": "paper PMC9462760", "about": "“A potent and selective inhibitor for the modulation of MAGL activity in the neurovasculature” (PLoS ONE, 2022)", "key": {"[1]": {"target": "T1, Monoacylglycerol lipase (MAGL) (Mus musculus, UniProt O35678)", "T1 construct": "gene Mgll", "T1 sequence (O35678 1-303)": "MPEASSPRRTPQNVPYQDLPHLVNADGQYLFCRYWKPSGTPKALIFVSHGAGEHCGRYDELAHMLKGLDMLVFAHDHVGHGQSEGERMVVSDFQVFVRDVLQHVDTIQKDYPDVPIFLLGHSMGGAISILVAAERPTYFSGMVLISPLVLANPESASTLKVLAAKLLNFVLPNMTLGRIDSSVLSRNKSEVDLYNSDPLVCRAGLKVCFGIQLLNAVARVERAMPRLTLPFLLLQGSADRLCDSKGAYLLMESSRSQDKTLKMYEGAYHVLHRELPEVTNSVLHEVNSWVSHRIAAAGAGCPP", "test": "competitive ABPP in mouse brain lysate at […] ([…] decrease of MAGL signal)", "format": "cell-based"}, "[2]": {"target": "T2, Monoacylglycerol lipase (MAGL) (Homo sapiens, UniProt Q99685)", "T2 construct": "gene MGLL", "T2 sequence (Q99685 1-303)": "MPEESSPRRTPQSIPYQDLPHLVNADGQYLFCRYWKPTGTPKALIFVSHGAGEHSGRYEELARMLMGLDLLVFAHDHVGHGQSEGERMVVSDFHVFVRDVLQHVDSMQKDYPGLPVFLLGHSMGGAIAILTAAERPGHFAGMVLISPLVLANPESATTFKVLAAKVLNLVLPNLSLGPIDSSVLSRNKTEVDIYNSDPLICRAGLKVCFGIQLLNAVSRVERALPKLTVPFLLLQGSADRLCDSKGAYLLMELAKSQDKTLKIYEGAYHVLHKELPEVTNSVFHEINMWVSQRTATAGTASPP", "test": "competitive ABPP in human brain lysate at […] ([…] decrease of MAGL signal)", "format": "cell-based"}}}
{"smiles": "O=C(Oc1ccc([N+](=O)[O-])cc1)N1CCC(C(O)(c2ccc3c(c2)OCO3)c2ccc3c(c2)OCO3)CC1", "note": "[JZL 184]", "values": [{"measurement": "inhibition at 10 µM", "setting": "[1]", "result": 78, "unit": "%"}, {"measurement": "inhibition at 10 µM", "setting": "[2]", "result": 83, "unit": "%"}]}
